In ChEMBL document CHEMBL3882724 (2013):

Tests used:
[1] = target: T1, Steroid 17-alpha-hydroxylase/17,20 lyase (Homo sapiens, UniProt P05093); experiment: Inhibition of CYP17 in human testicular microsomes using 17alpha-hydroxypregnenolone as substrate assessed as decrease in DHEA levels after 90 mins by ELISA; design: species or system Testis
T1 sequence (P05093 whole entry): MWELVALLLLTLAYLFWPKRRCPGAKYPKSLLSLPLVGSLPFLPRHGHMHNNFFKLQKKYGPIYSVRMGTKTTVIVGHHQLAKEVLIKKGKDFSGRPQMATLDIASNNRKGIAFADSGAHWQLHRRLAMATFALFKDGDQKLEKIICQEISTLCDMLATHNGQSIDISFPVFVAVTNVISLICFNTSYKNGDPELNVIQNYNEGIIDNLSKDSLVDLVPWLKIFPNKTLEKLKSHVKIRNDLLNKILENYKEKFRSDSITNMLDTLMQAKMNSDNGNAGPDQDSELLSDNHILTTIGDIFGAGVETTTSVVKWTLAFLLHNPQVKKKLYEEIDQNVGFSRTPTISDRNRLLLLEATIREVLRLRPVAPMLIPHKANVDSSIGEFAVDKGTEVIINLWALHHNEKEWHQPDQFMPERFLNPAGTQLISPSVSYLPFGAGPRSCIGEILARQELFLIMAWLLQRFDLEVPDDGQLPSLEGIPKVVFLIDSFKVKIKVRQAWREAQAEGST

[2] = target: T1, Steroid 17-alpha-hydroxylase/17,20 lyase; experiment: Inhibition of CYP17 in human testicular microsomes using 17alpha-hydroxypregnenolone as substrate assessed as decrease in DHEA levels at 10 nM after 90 mins by ELISA relative to control; design: species or system Testis; conditions: 1.5 h
[3] = Half life in rat liver microsomes at 1 uM by LC-MS/MS analysis
[4] = Half life in human liver microsomes at 1 uM by LC-MS/MS analysis
[5] = target: T2, CYP21 (steroid 21-hydroxylase) (Homo sapiens, UniProt P08686); experiment: Inhibition of human CYP21 transfected in HEK293 cells assessed as decrease in conversion of progesterone to 11-deoxycorticosterone at 100 nM preincubated for 5 hrs followed by progesterone addition measured after 20 hrs by ELISA relative to control; assay type: cell-based; conditions: HEK293 cells transfected with human CYP21, probe progesterone
T2 sequence (P08686 whole entry): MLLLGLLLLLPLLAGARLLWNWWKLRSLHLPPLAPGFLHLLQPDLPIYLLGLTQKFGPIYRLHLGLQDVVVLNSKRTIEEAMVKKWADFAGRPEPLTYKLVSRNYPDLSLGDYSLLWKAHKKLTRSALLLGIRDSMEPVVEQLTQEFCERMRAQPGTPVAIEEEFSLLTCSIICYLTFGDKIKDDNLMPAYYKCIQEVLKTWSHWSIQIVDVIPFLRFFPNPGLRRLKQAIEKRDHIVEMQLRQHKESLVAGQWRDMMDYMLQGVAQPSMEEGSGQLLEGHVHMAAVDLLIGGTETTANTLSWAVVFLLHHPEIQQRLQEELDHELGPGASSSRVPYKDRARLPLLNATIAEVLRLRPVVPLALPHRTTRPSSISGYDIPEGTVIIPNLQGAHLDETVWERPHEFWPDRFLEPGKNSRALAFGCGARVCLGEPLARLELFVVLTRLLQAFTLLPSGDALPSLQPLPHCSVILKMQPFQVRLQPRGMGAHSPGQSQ

[6] = target: T2, CYP21 (steroid 21-hydroxylase); experiment: Inhibition of human CYP21 transfected in HEK293 cells assessed as decrease in conversion of progesterone to 11-deoxycorticosterone preincubated for 5 hrs followed by progesterone addition measured after 20 hrs by ELISA; assay type: cell-based; design: concentration or dose not given beside the values; conditions: HEK293 cells transfected with human CYP21, probe progesterone
[7] = target: T1, Steroid 17-alpha-hydroxylase/17,20 lyase; experiment: Inhibition of CYP17 in human H295R cells assessed as decrease in testosterone levels after 24 hrs by ELISA; assay type: cell-based
[8] = target: T3, CYP11B (Rattus norvegicus, UniProt P15393+P30099); experiment: Inhibition of Sprague-Dawley rat adrenal mitochondrial CYP11B assessed as decrease in conversion of 11-deoxycortisol to cortisol at 100 nM incubated for 60 mins by ELISA relative to control; assay type: protein assay; conditions: adrenal mitochondria, probe 11-deoxycortisol
T3 sequence (P30099 whole entry): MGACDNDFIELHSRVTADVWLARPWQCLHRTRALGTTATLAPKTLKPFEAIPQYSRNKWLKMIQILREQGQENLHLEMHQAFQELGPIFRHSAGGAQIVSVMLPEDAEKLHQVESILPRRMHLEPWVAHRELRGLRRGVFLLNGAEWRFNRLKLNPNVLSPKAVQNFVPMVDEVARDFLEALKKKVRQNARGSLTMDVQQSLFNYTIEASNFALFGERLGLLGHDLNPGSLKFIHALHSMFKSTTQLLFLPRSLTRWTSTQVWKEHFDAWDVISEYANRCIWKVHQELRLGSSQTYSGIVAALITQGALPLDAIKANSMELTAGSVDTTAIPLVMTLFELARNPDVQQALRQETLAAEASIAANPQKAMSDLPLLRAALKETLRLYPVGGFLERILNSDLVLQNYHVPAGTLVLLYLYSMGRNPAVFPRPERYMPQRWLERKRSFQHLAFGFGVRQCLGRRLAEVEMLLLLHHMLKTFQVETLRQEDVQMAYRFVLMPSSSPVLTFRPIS
T3 sequence (P15393 whole entry): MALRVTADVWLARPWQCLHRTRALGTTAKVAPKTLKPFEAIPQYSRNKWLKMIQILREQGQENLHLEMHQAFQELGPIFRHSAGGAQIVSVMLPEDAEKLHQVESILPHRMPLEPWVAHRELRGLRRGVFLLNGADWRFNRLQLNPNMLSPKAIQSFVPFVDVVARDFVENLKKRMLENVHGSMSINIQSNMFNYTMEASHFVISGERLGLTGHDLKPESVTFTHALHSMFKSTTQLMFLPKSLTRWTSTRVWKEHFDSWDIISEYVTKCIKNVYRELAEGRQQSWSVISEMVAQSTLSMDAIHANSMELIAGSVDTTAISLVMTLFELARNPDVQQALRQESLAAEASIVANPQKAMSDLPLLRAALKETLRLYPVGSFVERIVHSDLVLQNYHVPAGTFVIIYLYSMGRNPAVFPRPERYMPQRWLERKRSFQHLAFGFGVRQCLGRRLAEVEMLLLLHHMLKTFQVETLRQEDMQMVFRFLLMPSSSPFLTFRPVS

[9] = target: T1, Steroid 17-alpha-hydroxylase/17,20 lyase; experiment: Inhibition of CYP17 in human testicular microsomes using 17alpha-hydroxypregnenolone as substrate assessed as decrease in DHEA levels at 1 nM after 90 mins by ELISA relative to control; design: species or system Testis

Row | SMILES | IC50 [1] | inhibition at 0.01 µM [2] | half-life at 1 µM [3] | half-life at 1 µM [4] | inhibition at 20 h, 0.1 µM [5] | inhibition at 20 h [6] | IC50 [7] | inhibition at 1 h, 0.1 µM [8] | IC50 [9]
1 | C[C@]12CC[C@H]3[C@@H](CC[C@H]4CC(=O)NCC[C@@]43C)C1=CC=C2c1cccnc1 | ≤ 11 nM | ≥ 80% | 1 to 10 min | 1 to 50 min | < 30% | – | – | – | –
2 | COc1cncc(C2=CC=C3[C@@H]4CCC5=CC(=O)N(C)CC[C@]5(C)[C@H]4CC[C@]23C)c1 | ≤ 11 nM | ≥ 80% | – | 1 to 50 min | ≥ 30% | – | – | – | –
3 | CN1CC[C@@]2(C)C(=CC1=O)CC[C@H]1C3=CC=C(c4cnccn4)[C@@]3(C)CC[C@@H]12 | ≤ 11 nM | ≥ 80% | – | – | ≥ 30% | 10 to 50% | – | – | –
4 | C[C@]12CCNC(=O)C=C1CC[C@@H]1[C@@H]2CC[C@]2(C)C(c3cnccn3)=CC[C@@H]12 | – | ≥ 80% | 1 to 10 min | 1 to 10 min | ≥ 30% | – | – | – | –
5 | C[C@]12CCNC(=O)C=C1CC[C@@H]1[C@@H]2CC[C@]2(C)C(n3ccnc3)=CC[C@@H]12 | ≤ 11 nM | ≥ 80% | 10 to 60 min | ≥ 50 min | < 30% | – | ≤ 15 nM | – | –
6 | C[C@]12CC[C@H]3[C@@H](CCC4=CC(=O)CC[C@@]43C)C1=CC=C2c1cccnc1 | ≤ 11 nM | ≥ 80% | 1 to 10 min | 1 to 50 min | ≥ 30% | – | – | – | –
7 | CCNC(=O)N[C@@H]1CC[C@@]2(C)C(=CC[C@@H]3[C@@H]2CC[C@]2(C)C(n4ccnc4)=CC[C@@H]32)C1 | – | – | – | 1 to 50 min | < 30% | ≥ 50% | – | ≥ 50% | –
8 | CN1CC[C@@]2(C)C(=CC1=O)CC[C@H]1C3=CC=C(c4cccnc4)[C@@]3(C)CC[C@@H]12 | ≤ 11 nM | ≥ 80% | – | 1 to 50 min | ≥ 30% | – | – | < 32% | –
9 | CN1CC[C@@]2(C)C(=CC1=O)CCC1[C@@H]2CC[C@]2(C)C(c3cccnc3)=CC[C@@H]12 (single isomer, unassigned) | ≤ 11 nM | 50 to 80% | 10 to 60 min | 10 to 60 min | ≥ 30% | – | – | – | –
10 | C[C@]12CCNC(=O)C=C1CC[C@@H]1[C@@H]2CC[C@]2(C)C(c3cncnc3)=CC[C@@H]12 | – | 50 to 80% | 1 to 10 min | 1 to 10 min | ≥ 30% | – | – | – | –
11 | C[C@]12CC[C@H]3[C@@H](CC[C@H]4CC(=O)CC[C@@]43C)C1=CC=C2c1cccnc1 | ≤ 11 nM | ≥ 80% | – | 1 to 50 min | ≥ 30% | – | – | ≥ 50% | –
12 | C[C@]12CC[C@H]3[C@@H](CC[C@H]4CC(=O)NCC[C@@]43C)C1=CC=C2n1ccnc1 | ≤ 11 nM | ≥ 80% | – | 1 to 50 min | ≥ 30% | – | – | – | –
13 | CO/N=C1/C=C2CC[C@H]3C4=CC=C(c5cccnc5)[C@@]4(C)CC[C@@H]3[C@@]2(C)CC1 | ≤ 11 nM | – | – | ≥ 50 min | ≥ 30% | 10 to 50% | – | – | > 100 nM
14 | C[C@]12CCNC(=O)C=C1CC[C@@H]1[C@@H]2CC[C@]2(C)C(n3ccnn3)=CC[C@@H]12 | – | ≥ 80% | 1 to 10 min | ≥ 50 min | < 30% | – | – | – | –
15 | C[C@]12CC[C@H]3[C@@H](CCN4C(=O)CCCC[C@]34C)[C@@H]1CC=C2c1cccnc1 | ≤ 11 nM | 50 to 80% | – | – | < 30% | – | – | – | –
16 | COc1cncc(C2=CC=C3[C@@H]4CCC5=CC(=O)CC[C@]5(C)[C@H]4CC[C@]23C)c1 | – | 50 to 80% | – | 1 to 50 min | ≥ 30% | – | – | – | –
17 | CCc1cncc(C2=CC[C@H]3[C@@H]4CCC5=CC(=O)NCC[C@]5(C)[C@H]4CC[C@]23C)c1 | ≤ 11 nM | ≥ 80% | 10 to 60 min | 10 to 60 min | < 30% | – | – | – | –
18 | C[C@]12CCNC(=O)C=C1CC[C@@H]1[C@@H]2CC[C@]2(C)C(c3cccnc3)=CC[C@@H]12 | ≤ 11 nM | ≥ 80% | 1 to 10 min | 1 to 10 min | < 30% | – | – | – | –
19 | Cc1cncc(C2=CC[C@H]3[C@@H]4CCC5=CC(=O)NCC[C@]5(C)[C@H]4CC[C@]23C)c1 | ≤ 11 nM | 50 to 80% | 10 to 60 min | 10 to 60 min | ≥ 30% | – | – | – | –
20 | C[C@]12CC[C@H]3[C@@H](CCC4=CC(=O)NCC[C@@]43C)C1=CC=C2n1ccnc1 | ≤ 11 nM | ≥ 80% | 10 to 60 min | ≥ 50 min | < 30% | – | – | – | –
21 | CN1CC[C@@]2(C)C(=CC1=O)CC[C@H]1C3=CC=C(n4ccnc4)[C@@]3(C)CC[C@@H]12 | – | ≥ 80% | 10 to 60 min | ≥ 50 min | ≥ 30% | – | ≤ 15 nM | – | –
22 | C[C@]12CCCC(=O)CC1=CC[C@@H]1[C@@H]2CC[C@]2(C)C(n3ccnc3)=CC[C@@H]12 | ≤ 11 nM | ≥ 80% | – | 1 to 50 min | ≥ 30% | – | – | – | –
23 | CCCOc1cncc(C2=CC[C@H]3[C@@H]4CCC5=CC(=O)NCC[C@]5(C)[C@H]4CC[C@]23C)c1 | ≤ 11 nM | 50 to 80% | – | – | < 30% | – | – | – | –
24 | C[C@]12CCCC(=O)CC1=CC[C@@H]1[C@@H]2CC[C@]2(C)C(c3cnccn3)=CC[C@@H]12 | – | ≥ 80% | – | 1 to 50 min | ≥ 30% | – | – | – | –
